The experiment deals with human PBMC HIV-1 replication, RT activity in supernatant. Nature of the experiment: antiviral activity against X4-tropic HIV-1 in PBMC – cell-based, CXCR4-tropic HIV-1, primary PBMCs, dose response (AID 504484).
As for `COc1ccccc1Cn1c(O)cc2nn(-c3nc4ccccc4s3)c(=O)c-2c1C`, the IC50 was 4.42 µM. On to `Cc1c2c(=O)n(-c3nc4ccccc4s3)nc-2cc(O)n1Cc1ccncc1`, for which the 50% inhibitory concentration (IC50) is 1.81 µM. With `Cc1c2c(=O)n(-c3nc4ccccc4s3)nc-2cc(O)n1C1CC1` the figure was 3.35 µM; with `Cc1c2c(=O)n(-c3nc4ccccc4s3)nc-2cc(O)n1Cc1ccccc1Cl`, 7.44 µM. On to `Cc1c2c(=O)n(-c3nc4ccccc4s3)nc-2cc(O)n1Cc1cccs1`, for which the IC50 was 11.5 µM. `COc1ccc(Cn2c(O)cc3nn(-c4nc5ccccc5s4)c(=O)c-3c2C)cc1`: the IC50 is 7.71 µM.

On to `Cc1c2c(=O)n(-c3nc4ccccc4s3)nc-2cc(O)n1CCC(C)C`, for which the IC50 is 5.68 µM. As to `Cc1c2c(=O)n(-c3nc4ccccc4s3)nc-2cc(O)n1CCc1cccs1`, the IC50 was 28.7 µM. With `Cc1c2c(=O)n(-c3nc4ccccc4s3)nc-2cc(O)n1Cc1ccc(F)cc1` the figure was 7.48 µM; with `Cc1c2c(=O)n(-c3nc4ccccc4s3)nc-2cc(O)n1Cc1cccnc1`, 2.86 µM.

Turning to `COc1ccc(CCn2c(O)cc3nn(-c4nc5ccccc5s4)c(=O)c-3c2C)cc1`, the IC50 was 5.45 µM. With `Cc1c2c(=O)n(-c3nc4ccccc4s3)nc-2cc(O)n1CCc1ccc(O)cc1`, the IC50 was 1.32 µM.

As a reminder, the IC50 is the concentration at which inhibition is half-maximal.

For the origin of these results see PubChem BioAssay AID504484 (Southern Research Specialized Biocontainment Screening …, 2011).
